Assay results from paper PMC8268887, “Peptide/β-Peptoid Hybrids with Ultrashort PEG-Like Moieties: Effects on Hydrophobicity, Antibacterial Activity and Hemolytic Properties” (International Journal of Molecular Sciences, 2021).
Values after ≈ are worked out from the molar mass of the structure shown. Where two headings read alike, the source gives them in different places.

Key:
[1] = Hydrophobicity by retention in analytical RP-HPLC (% MeCN at peak elution); assay type: physicochemical; details: for % MeCN at Elution, Aeris Peptide: Phenomenex Aeris Peptide XB-C18 column; for % MeCN at Elution, Aeris Peptide / % MeCN at Elution, Luna Omega / % MeCN at Elution, Supelco Discovery: gradient 0→60% B during 15 min; for % MeCN at Elution, Luna: Phenomenex Luna C18(2) column, RP-HPLC gradient 0→60% B during 15 min, relative hydrophobicity; for % MeCN at Elution, Luna Omega: Phenomenex Luna Omega Polar C18 column; for % MeCN at Elution, Supelco Discovery: Supelco Discovery BIO Wide pore C18 column
Experimental: For each peptide/β-peptoid hybrid oligomer, the retention time in RP-HPLC was measured on four different columns (details shown in Table 2): Phenomenex Luna C18(2) column (recommended for hydrophobic compounds [49]), Phenomenex Luna Omega Polar C18 column (recommended for both very polar and non-polar compounds [50]) as well as Phenomenex Aeris Peptide XB-C18 [51] and Sigma-Aldrich Supelco Discovery BIO Wide pore C18 [52] columns, which both are recommended for analysis of peptides. The retention times of the compounds on each column were used to calculate the acetonitrile concentration at peak elution (denoted merely as % MeCN; Table 1). As expected, the % MeCN for each compound varied somewhat between the four columns.
Starting materials and solvents were acquired from commercial suppliers (Iris Biotech, Markredwitz, Germany; Fluorochem, Hadfield, UK; and Merck, Darmstadt, Germany) and used without further purification. Water used for analytical and preparative high-performance liquid chromatography (HPLC) was filtered through a 0.22-μm capsule filter using an Evoqua LaboStar Pro TWF UV system. Purity and retention time of each peptidomimetic were determined by analytical HPLC by using a Phenomenex Luna Omega Polar C18 column (150 × 4.6 mm; particle size: 3 μm; pore size: 100 Å) on a Shimadzu Prominence and Shimadzu Nexera system using an aqueous acetonitrile (MeCN, VWR, Søborg, Denmark) gradient with 0.1% trifluoroacetic acid (TFA, Iris Biotech, Markredwitz, Germany) added (eluent A: 5:95 MeCN–H2O + 0.1% TFA, eluent B: 95:5 MeCN–H2O + 0.1% TFA); a flow rate of 0.8 mL/min was used. For elution of peptidomimetics, a linear gradient of 0% to 60% B during 15 min was used with UV detection at λ = 220 nm. […] Retention time of each peptidomimetic was also determined by using a Phenomenex Luna C18(2) column (150 × 4.6 mm; particle size: 3 μm; pore size: 100 Å), a Phenomenex Aeris Peptide XB-C18 column (150 × 4.6 mm; particle size: 3.6 μm; pore size: 100 Å), and a Sigma-Aldrich Supelco Discovery BIO Wide pore C18 column (150 × 4.6 mm, particle size: 3 µm; pore size: 300 Å). For each peptidomimetic, the percentage of MeCN at peak elution was calculated from the retention time by using the following formula:(1) %MeCN =0.95 (0.6Rt/15 min)+0.05 (1−0.6Rt/15 min)

[2] = system: P. aeruginosa NMI 7197/19; assay type: cell-based, Pseudomonas aeruginosa; details: NMI 7197/19, 20 h
Experimental: (§1) MIC values of the peptidomimetics were evaluated by using the modified Hancock lab protocol in non-binding polystyrene microtiter plates. Bacterial suspensions of ~5 × 10^5 CFU/mL in Mueller-Hinton broth (Difco, Sparks, MD, USA) were prepared with Mg^2+ and Ca^2+ concentrations of 4 mg/L each. The compounds were dissolved in H2O and diluted in 0.01% acetic acid, 0.2% BSA (final concentration). Aliquots (11 µL) of test compounds were then transferred to wells containing bacterial suspensions (100 µL). Low-binding sterile tubes and tips (Axygen, Union City, CA, USA) were used for preparation and transfer of the solutions of the compounds. Following incubation for 20 h of the covered plates at 35 °C (±2 °C) with circular shaking at 180 rpm, the MICs were read.

P. aeruginosa PAO1 = assay type: cell-based, Pseudomonas aeruginosa
Experimental: as §1

E. coli NMI 3371/16 = assay type: cell-based, Escherichia coli; details: NMI 3371/16, 20 h
Experimental: as §1

E. coli NMI 3898/15 = assay type: cell-based, Escherichia coli; details: NMI 3898/15, 20 h
Experimental: as §1

E. coli ATCC 25922 = assay type: cell-based, Escherichia coli; details: ATCC 25922, 20 h
Experimental: as §1

[3] = Determination of hemolytic activity; assay type: cell-based; details: red blood cell suspension in PBS buffer, human red blood cells at 400 µg/mL, 37 °C
Experimental: The lysis of human red blood cells was measured almost as previously described, albeit with modifications. In brief, a suspension of freshly drawn human red blood cells (hRBCs) was washed three times with PBS buffer and centrifuged two times for 5 min at 2500 rpm. A two-fold serial dilution of compounds in PBS buffer was prepared. Plates (conical-bottomed 96-well plates) with three replicate wells per dilution, each containing 1% red blood cell suspension, were prepared and dosed with the test compound to achieve a final concentration of 400 μg/mL in a total volume of 100 μL. The plates were incubated (37 °C) for 60 min with mild agitation, and then the cells were pelleted by centrifugation at 1500 rpm for 5 min. The supernatants (50 μL) were then transferred to a fresh 96-well plate, and the concentration of hemoglobin was detected by measuring the OD at 405 nm. The OD of cells incubated with 1% SDS defined 100% hemolysis, while the OD of cells incubated with PBS buffer defined 0% hemolysis. The concentration tested was 400 μg/mL (only average values are stated in Table 5). The percent hemolysis was calculated by using the formula:(3) Hemolysis (%)=100×[Asample−Aneg.control/Apos.control−Aneg.control]

A. baumannii ATCC 19606 = assay type: cell-based, Acinetobacter baumannii; details: ATCC 19606, 20 h
Experimental: as §1

A. baumannii NMI 3658/17 = assay type: cell-based, Acinetobacter baumannii; details: NMI 3658/17, 20 h
Experimental: as §1

K. pneumoniae ATCC 13883 = assay type: cell-based; details: ATCC 13883, 20 h
Experimental: as §1

E. faecalis ATCC 29212 = assay type: cell-based; details: ATCC 29212, 20 h
Experimental: as §1

S. aureus ATCC 29213 = assay type: cell-based, Staphylococcus aureus; details: ATCC 29213, 20 h
Experimental: as §1

SMILES	% MeCN at Elution, Aeris Peptide [1]	% MeCN at Elution, Luna [1]	% MeCN at Elution, Luna Omega [1]	% MeCN at Elution, Supelco Discovery [1]	MIC, P. aeruginosa NMI 7197/19 [2]	MIC, PA (P. aeruginosa PAO1; PAO1, 20 h)	MIC, E. coli NMI 3371/16 (E. coli NMI 3371/16)	MIC, E. coli NMI 3898/15 (E. coli NMI 3898/15)	MIC, EC (E. coli ATCC 25922)	hemolysis at 60 min [3]	MIC, AB (A. baumannii ATCC 19606)	MIC, A. baumannii NMI 3658/17 (A. baumannii NMI 3658/17)	MIC, KP (K. pneumoniae ATCC 13883)	MIC, EF (E. faecalis ATCC 29212)	MIC, SA (S. aureus ATCC 29213)	MIC, PA (P. aeruginosa PAO1; P. aeruginosa PAO1 (WT))
NCCCC[C@H](NC(=O)CCN(Cc1ccc(F)cc1)C(=O)[C@H](CCCCN)NC(=O)CCN(Cc1ccc(F)cc1)C(=O)[C@H](CCCCN)NC(=O)CCN(Cc1ccc(F)cc1)C(=O)[C@H](CCCCN)NC(=O)CCN(Cc1ccc(F)cc1)C(=O)[C@H](CCCCN)NC(=O)CCN(Cc1ccc(F)cc1)C(=O)[C@H](CCCCN)NC(=O)CCOCCOCCOCCOCCN)C(=O)N(CCC(N)=O)Cc1ccc(F)cc1 [Compound 3, H-sPEG4-[X]6-NH2]	39.6 % MeCN	41.9 % MeCN	42.4 % MeCN	42.6 % MeCN	>64 µg/mL	32 to 64 µg/mL	8 µg/mL (≈ 3.79 µM)	16 µg/mL (≈ 7.59 µM)	8 µg/mL (≈ 3.79 µM)	8.1%	4 to 8 µg/mL	4 to 8 µg/mL	>64 µg/mL	>64 µg/mL		
NCCCC[C@H](NC(=O)CCN(Cc1ccc(F)cc1)C(=O)[C@H](CCCCN)NC(=O)CCN(Cc1ccc(F)cc1)C(=O)[C@H](CCCCN)NC(=O)CCN(Cc1ccc(F)cc1)C(=O)[C@H](CCCCN)NC(=O)CCN(Cc1ccc(F)cc1)C(=O)[C@H](CCCCN)NC(=O)CCN(Cc1ccc(F)cc1)C(=O)[C@H](CCCCN)NC(=O)COCCOCCN)C(=O)N(CCC(N)=O)Cc1ccc(F)cc1 [Compound 2, H-sPEG2-[X]6-NH2]	39.4 % MeCN	41.4 % MeCN	41.9 % MeCN	41.5 % MeCN	>64 µg/mL	32 µg/mL (≈ 15.9 µM)	8 µg/mL (≈ 3.99 µM)	16 µg/mL (≈ 7.97 µM)	8 µg/mL (≈ 3.99 µM)	2.4%	4 µg/mL (≈ 1.99 µM)	4 µg/mL (≈ 1.99 µM)	>64 µg/mL	>64 µg/mL	32 to 64 µg/mL	
NCCCC[C@H](NC(=O)CCN(Cc1ccc(F)cc1)C(=O)[C@H](CCCCN)NC(=O)CCN(Cc1ccc(F)cc1)C(=O)[C@H](CCCCN)NC(=O)CCN(Cc1ccc(F)cc1)C(=O)[C@H](CCCCN)NC(=O)CCN(Cc1ccc(F)cc1)C(=O)[C@H](CCCCN)NC(=O)CCN(Cc1ccc(F)cc1)C(=O)[C@H](CCCCN)NC(=O)COCCOCCN)C(=O)N(CCC(=O)NCCOCCOCC(N)=O)Cc1ccc(F)cc1 [Compound 4, H-sPEG2-[X]6-sPEG2-NH2]	39.2 % MeCN	41.3 % MeCN	42.1 % MeCN	41.4 % MeCN	>64 µg/mL	16 µg/mL (≈ 7.44 µM)	8 to 16 µg/mL	16 to 32 µg/mL	8 to 16 µg/mL	5.4%	4 µg/mL (≈ 1.86 µM)	4 to 8 µg/mL	>64 µg/mL	>64 µg/mL	>64 µg/mL	
NCCCC[C@H](NC(=O)CCN(Cc1ccc(F)cc1)C(=O)[C@H](CCCCN)NC(=O)CCN(Cc1ccc(F)cc1)C(=O)[C@H](CCCCN)NC(=O)CCN(Cc1ccc(F)cc1)C(=O)[C@H](CCCCN)NC(=O)CCN(Cc1ccc(F)cc1)C(=O)[C@H](CCCCN)NC(=O)CCN(Cc1ccc(F)cc1)C(=O)[C@H](CCCCN)NC(=O)CCOCCOCCOCCOCCN)C(=O)N(CCC(=O)NCCOCCOCCOCCOCCC(N)=O)Cc1ccc(F)cc1 [Compound 5, H-sPEG4-[X]6-sPEG4-NH2]	40.0 % MeCN	42.2 % MeCN	43.2 % MeCN	42.5 % MeCN	>64 µg/mL		8 to 16 µg/mL	32 µg/mL (≈ 13.6 µM)	16 µg/mL (≈ 6.79 µM)	6.4%		16 µg/mL (≈ 6.79 µM)	>64 µg/mL	>64 µg/mL	>64 µg/mL	> 64 µg/mL
